In patent US9833497B2, “Human originated EGF domain proteins and use of the same” (CHENGDU SOURCEBIO LIMITED-LIABILITY COMPANY, priority 2013, dated 2017):

Key:
Assay type in all cases: cell-based
[1] = tested on: E. coli DH5α; test: Antibacterial activity: MIC and growth curve against E. coli DH5α in 96-well plate; settings: minimal inhibitory concentration against E. coli DH5α; 96-well plate, 5×10^5 CFU/mL, 37° C., judged after 8 h
How it was run: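 MIC taken as lowest protein level with no bacterial growth, tracked by A600 every 30 min during 37 °C, 175 rpm culture. Two-fold protein series 50-12.5 μg/mL final, triplicate wells, against 5×10^5 CFU/mL of LB-washed mid-log cells.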

[2] = tested on: E. coli BL21; test: MIC against Gram-negative bacteria: E. coli BL21; settings: 5×10^5 CFU/mL; for MIC E. coli BL21: two-fold serial dilution
How it was run: (§1)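 Purified recombinant human EGF domain proteins are tested by broth dilution in LB against a 5×10^5 CFU/mL inoculum, with two-fold serial dilutions run in triplicate. Plates are incubated at 37° C with shaking, and the MIC is read as the lowest protein concentration without growth.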

[3] = tested on: Pseudomonas aeruginosa; test: MIC against Gram-negative bacteria: Pseudomonas aeruginosa; settings: 5×10^5 CFU/mL; for MIC P. aeruginosa: two-fold serial dilution
How it was run: as §1

[4] = tested on: Klebsiella pneumonia; test: MIC against Gram-negative bacteria: Klebsiella pneumonia; settings: 5×10^5 CFU/mL; for MIC K. pneumonia: two-fold serial dilution
How it was run: as §1

[5] = tested on: Enterobacter cloacae; test: MIC against Gram-negative bacteria: Enterobacter cloacae; settings: 5×10^5 CFU/mL; for MIC E. cloacae: two-fold serial dilution
How it was run: as §1

[6] = tested on: Aeromonas hydrophila; test: MIC against Gram-negative bacteria: Aeromonas hydrophila; settings: 5×10^5 CFU/mL; for MIC A. hydrophila: two-fold serial dilution
How it was run: as §1

[7] = tested on: Citrobacter diversus; test: MIC against Gram-negative bacteria: Citrobacter diversus; settings: 5×10^5 CFU/mL; for MIC C. diversus: two-fold serial dilution
How it was run: as §1

[8] = tested on: Moraxella catarrhalis; test: MIC against Gram-negative bacteria: Moraxella catarrhalis; settings: 5×10^5 CFU/mL; for MIC M. catarrhalis: two-fold serial dilution
How it was run: as §1

[9] = tested on: Proteus mirabilis; test: MIC against Gram-negative bacteria: Proteus mirabilis; settings: 5×10^5 CFU/mL; for MIC P. mirabilis: two-fold serial dilution
How it was run: as §1

[10] = tested on: Proteus vulgaris; test: MIC against Gram-negative bacteria: Proteus vulgaris; settings: 5×10^5 CFU/mL; for MIC P. vulgaris: two-fold serial dilution
How it was run: as §1

[11] = tested on: Serratia marcescens; test: MIC against Gram-negative bacteria: Serratia marcescens; settings: 5×10^5 CFU/mL; for MIC S. marcescens: two-fold serial dilution
How it was run: as §1

[12] = E. coli BL21, 96-well plate, 37° C., 10 h
[13] = Pseudomonas aeruginosa, 96-well plate, 37° C., 10 h
[14] = Klebsiella pneumonia, 96-well plate, 37° C., 10 h
[15] = Enterobacter cloacae, 96-well plate, 37° C., 10 h
[16] = Aeromonas hydrophila, 96-well plate, 37° C., 10 h
[17] = Citrobacter diversus, 96-well plate, 37° C., 10 h
[18] = Moraxella catarrhalis, 96-well plate, 37° C., 10 h
[19] = Proteus mirabilis, 96-well plate, 37° C., 10 h
[20] = Proteus vulgaris, 96-well plate, 37° C., 10 h
[21] = Serratia marcescens, 96-well plate, 37° C., 10 h
[22] = E. coli BL21, 10 h cultivation at 37° C.
[23] = P. aeruginosa, 10 h cultivation at 37° C.
[24] = K. pneumonia, 10 h cultivation at 37° C.
[25] = E. cloacae, 10 h cultivation at 37° C.
[26] = A. hydrophila, 10 h cultivation at 37° C.
[27] = C. diversus, 10 h cultivation at 37° C.
[28] = M. catarrhalis, 10 h cultivation at 37° C.
[29] = P. mirabilis, 10 h cultivation at 37° C.
[30] = P. vulgaris, 10 h cultivation at 37° C.
[31] = S. marcescens, 10 h cultivation at 37° C.

## PRT1190 (DLNYCGSHHPCTNGGTCINAEPDQYRCTCPDGYSGRNCE; listed as Homo sapiens)
[1]
  MIC: 50 µg/mL
[2]; 10 h cultivation at 37° C.
  MIC E. coli BL21: 12.5 µg/mL
[3]; 10 h cultivation at 37° C.
  MIC P. aeruginosa: 25 µg/mL
[4]; 10 h cultivation at 37° C.
  MIC K. pneumonia: 12.5 µg/mL
[5]; 10 h cultivation at 37° C.
  MIC E. cloacae: 50 µg/mL
[6]; 10 h cultivation at 37° C.
  MIC A. hydrophila: 12.5 µg/mL
[7]; 10 h cultivation at 37° C.
  MIC C. diversus: 25 µg/mL
[8]; 10 h cultivation at 37° C.
  MIC M. catarrhalis: 50 µg/mL
[9]; 10 h cultivation at 37° C.
  MIC P. mirabilis: 25 µg/mL
[10]; 10 h cultivation at 37° C.
  MIC P. vulgaris: 12.5 µg/mL
[11]; 10 h cultivation at 37° C.
  MIC S. marcescens: 50 µg/mL

## PRT1274 (DVDECAEGNGGCQQSCVNMMGSYECHCREGFFLSDNQ; listed as Homo sapiens)
[1]
  MIC: 12.5 µg/mL
[2]; [12]
  MIC against E. coli BL21: 50 µg/mL
[3]; [13]
  MIC against P. aeruginosa: 12.5 µg/mL
[4]; [14]
  MIC against K. pneumonia: 50 µg/mL
[5]; [15]
  MIC against E. cloacae: 12.5 µg/mL
[6]; [16]
  MIC against A. hydrophila: 50 µg/mL
[7]; [17]
  MIC against C. diversus: 25 µg/mL
[8]; [18]
  MIC against M. catarrhalis: 12.5 µg/mL
[9]; [19]
  MIC against P. mirabilis: 25 µg/mL
[10]; [20]
  MIC against P. vulgaris: 50 µg/mL
[11]; [21]
  MIC against S. marcescens: 25 µg/mL

## PRT14 (PPKPCDSQPCFHGGTCQDWALGGGFTCSCPAGRGGAVCE; listed as Homo sapiens)
[1]
  MIC: 25 µg/mL
[2]; [12]
  MIC (μg/mL) E. coli BL21: 50 µg/mL
[3]; [13]
  MIC (μg/mL) P. aeruginosa: 25 µg/mL
[4]; [14]
  MIC (μg/mL) K. pneumonia: 12.5 µg/mL
[5]; [15]
  MIC (μg/mL) E. cloacae: 25 µg/mL
[6]; [16]
  MIC (μg/mL) A. hydrophila: 50 µg/mL
[7]; [17]
  MIC (μg/mL) C. diversus: 25 µg/mL
[8]; [18]
  MIC (μg/mL) M. catarrhalis: 12.5 µg/mL
[9]; [19]
  MIC (μg/mL) P. mirabilis: 25 µg/mL
[10]; [20]
  MIC (μg/mL) P. vulgaris: 50 µg/mL
[11]; [21]
  MIC (μg/mL) S. marcescens: 12.5 µg/mL

## PRT1160 (DTEDCKSASCKNGTTSTHLRGYFFRKCVPGFKGTQCE; listed as Homo sapiens)
[1]
  MIC: 12.5 µg/mL
[2]; 10 h cultivation at 37° C.
  MIC E. coli BL21: 25 µg/mL
[3]; 10 h cultivation at 37° C.
  MIC P. aeruginosa: 12.5 µg/mL
[4]; 10 h cultivation at 37° C.
  MIC K. pneumonia: 25 µg/mL
[5]; 10 h cultivation at 37° C.
  MIC E. cloacae: 12.5 µg/mL
[6]; 10 h cultivation at 37° C.
  MIC A. hydrophila: 12.5 µg/mL
[7]; 10 h cultivation at 37° C.
  MIC C. diversus: 25 µg/mL
[8]; 10 h cultivation at 37° C.
  MIC M. catarrhalis: 12.5 µg/mL
[9]; 10 h cultivation at 37° C.
  MIC P. mirabilis: 25 µg/mL
[10]; 10 h cultivation at 37° C.
  MIC P. vulgaris: 12.5 µg/mL
[11]; 10 h cultivation at 37° C.
  MIC S. marcescens: 25 µg/mL

## PRT479 (AAMACSHQRCHGHGRCARRDPGQMEAFLHLWPDGSLGDWKSFSCHCYWGWAGPTCQ; listed as Homo sapiens)
[1]
  MIC: 25 µg/mL
[2]; 96-well plate, 37° C., 10 h
  MIC against E. coli BL21: 50 µg/mL
[3]; 96-well plate, 37° C., 10 h
  MIC against P. aeruginosa: 25 µg/mL
[4]; 96-well plate, 37° C., 10 h
  MIC against K. pneumonia: 12.5 µg/mL
[5]; 96-well plate, 37° C., 10 h
  MIC against E. cloacae: 25 µg/mL
[6]; 96-well plate, 37° C., 10 h
  MIC against A. hydrophila: 50 µg/mL
[7]; 96-well plate, 37° C., 10 h
  MIC against C. diversus: 25 µg/mL
[8]; 96-well plate, 37° C., 10 h
  MIC against M. catarrhalis: 12.5 µg/mL
[9]; 96-well plate, 37° C., 10 h
  MIC against P. mirabilis: 25 µg/mL
[10]; 96-well plate, 37° C., 10 h
  MIC against P. vulgaris: 50 µg/mL
[11]; 96-well plate, 37° C., 10 h
  MIC against S. marcescens: 25 µg/mL

## PRT176 (APLVCRAGCSPEHGFCEQPGECRCLEGWTGPLCT; listed as Homo sapiens)
[1]
  MIC: 25 µg/mL
[2]; [22]
  MIC (μg/mL) E. coli BL21: 12.5 µg/mL
[3]; [23]
  MIC (μg/mL) P. aeruginosa: 25 µg/mL
[4]; [24]
  MIC (μg/mL) K. pneumonia: 12.5 µg/mL
[5]; [25]
  MIC (μg/mL) E. cloacae: 25 µg/mL
[6]; [26]
  MIC (μg/mL) A. hydrophila: 12.5 µg/mL
[7]; [27]
  MIC (μg/mL) C. diversus: 25 µg/mL
[8]; [28]
  MIC (μg/mL) M. catarrhalis: 50 µg/mL
[9]; [29]
  MIC (μg/mL) P. mirabilis: 25 µg/mL
[10]; [30]
  MIC (μg/mL) P. vulgaris: 12.5 µg/mL
[11]; [31]
  MIC (μg/mL) S. marcescens: 25 µg/mL

## PRT806 (FGFQCSQHCDCHNGGQCSPTTGACECEPGYKGPRCQ; listed as Homo sapiens)
[1]
  MIC: 12.5 µg/mL
[2]; [22]
  MIC (μg/mL) E. coli BL21: 25 µg/mL
[3]; [23]
  MIC (μg/mL) P. aeruginosa: 12.5 µg/mL
[4]; [24]
  MIC (μg/mL) K. pneumonia: 12.5 µg/mL
[5]; [25]
  MIC (μg/mL) E. cloacae: 12.5 µg/mL
[6]; [26]
  MIC (μg/mL) A. hydrophila: 12.5 µg/mL
[7]; [27]
  MIC (μg/mL) C. diversus: 12.5 µg/mL
[8]; [28]
  MIC (μg/mL) M. catarrhalis: 25 µg/mL
[9]; [29]
  MIC (μg/mL) P. mirabilis: 12.5 µg/mL
[10]; [30]
  MIC (μg/mL) P. vulgaris: 25 µg/mL
[11]; [31]
  MIC (μg/mL) S. marcescens: 25 µg/mL
